Assay results from PubChem BioAssay (NCI).
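GI50 is the concentration that inhibits growth by half. Definition used: TGI = concentration required for complete inhibition of growth.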

Experiments:
Test in all cases: NCI anticancer screen, dose series, 384-well format
HT29 colon = system: HT29 colon
IGROV1 ovarian = system: IGROV1 ovarian
RXF 393 renal = system: RXF 393 renal
OVCAR-5 ovarian = system: OVCAR-5 ovarian
786-0 renal = system: 786-0 renal
HL-60(TB) leukemia = system: HL-60(TB) leukemia
SK-MEL-28 melanoma = system: SK-MEL-28 melanoma
TK-10 renal = system: TK-10 renal
HCC-2998 colon = system: HCC-2998 colon
K-562 leukemia = system: K-562 leukemia
LOX IMVI melanoma = system: LOX IMVI melanoma
NCI-H23 lung = system: NCI-H23 lung
NCI-H460 NSCLC = system: NCI-H460 NSCLC
SF-268 CNS = system: SF-268 CNS
PC-3 prostate = system: PC-3 prostate
RPMI-8226 leukemia = system: RPMI-8226 leukemia
OVCAR-3 ovarian = system: OVCAR-3 ovarian
MALME-3M melanoma = system: MALME-3M melanoma
EKVX NSCLC = system: EKVX NSCLC
KM12 colon = system: KM12 colon
SK-MEL-5 melanoma = system: SK-MEL-5 melanoma
UACC-257 melanoma = system: UACC-257 melanoma
ACHN renal = system: ACHN renal
COLO 205 colon = system: COLO 205 colon
HOP-62 NSCLC = system: HOP-62 NSCLC
SK-OV-3 ovarian = system: SK-OV-3 ovarian
BT-549 breast = system: BT-549 breast
UACC-62 melanoma = system: UACC-62 melanoma
OVCAR-8 ovarian = system: OVCAR-8 ovarian
A498 renal = system: A498 renal
A549 NSCLC = system: A549 NSCLC
CAKI-1 renal = system: CAKI-1 renal
MCF7 breast = system: MCF7 breast
NCI-H522 lung = system: NCI-H522 lung
SN12C renal = system: SN12C renal
OVCAR-4 ovarian = system: OVCAR-4 ovarian
MDA-MB-468 breast = system: MDA-MB-468 breast
SF-295 CNS = system: SF-295 CNS
DU-145 prostate = system: DU-145 prostate
HCT-116 colon = system: HCT-116 colon
SF-539 CNS = system: SF-539 CNS
UO-31 renal = system: UO-31 renal
CCRF-CEM leukemia = system: CCRF-CEM leukemia
HOP-92 NSCLC = system: HOP-92 NSCLC
HCT-15 colon = system: HCT-15 colon
HS 578T breast = system: HS 578T breast
MDA-MB-231 breast = system: MDA-MB-231 breast
MDA-MB-435 melanoma = system: MDA-MB-435 melanoma
MOLT-4 leukemia = system: MOLT-4 leukemia
NCI-H226 lung = system: NCI-H226 lung
SNB-19 CNS = system: SNB-19 CNS
NCI-H322M lung = system: NCI-H322M lung
U251 glioblastoma = system: U251 glioblastoma
SW-620 colon = system: SW-620 colon
SNB-75 CNS = system: SNB-75 CNS
NCI/ADR-RES ovarian = system: NCI/ADR-RES ovarian
M14 melanoma = system: M14 melanoma
T-47D breast = system: T-47D breast
SK-MEL-2 melanoma = system: SK-MEL-2 melanoma

## C1=C/COCc2cc(ccc2OCCN2CCCC2)Nc2nccc(n2)-c2ccc(o2)COC/1
HT29 colon
  GI50: 1290 nM
  TGI: 2820 nM
IGROV1 ovarian
  GI50: 433 nM
  TGI: 1900 nM
RXF 393 renal
  GI50: 1250 nM
  TGI: 2570 nM
OVCAR-5 ovarian
  GI50: 590 nM
  TGI: 4100 nM
786-0 renal
  GI50: 1520 nM
  TGI: 4970 nM
HL-60(TB) leukemia
  GI50: 479 nM
  TGI: 1680 nM
SK-MEL-28 melanoma
  GI50: 1430 nM
  TGI: 3000 nM
TK-10 renal
  GI50: 2390 nM
  TGI: 9400 nM
HCC-2998 colon
  GI50: 1270 nM
  TGI: 2830 nM
K-562 leukemia
  GI50: 1390 nM
  TGI: 4120 nM
LOX IMVI melanoma
  GI50: 892 nM
  TGI: 2180 nM
NCI-H23 lung
  GI50: 879 nM
  TGI: 2190 nM
NCI-H460 NSCLC
  GI50: 792 nM
  TGI: 2270 nM
SF-268 CNS
  GI50: 256 nM
  TGI: 964 nM
PC-3 prostate
  GI50: 1490 nM
  TGI: 4880 nM
RPMI-8226 leukemia
  GI50: 1790 nM
  TGI: 3220 nM
OVCAR-3 ovarian
  GI50: 1330 nM
  TGI: 3230 nM
MALME-3M melanoma
  GI50: 1060 nM
  TGI: 2270 nM
EKVX NSCLC
  GI50: 1490 nM
  TGI: 3370 nM
KM12 colon
  GI50: 325 nM
  TGI: 1920 nM
SK-MEL-5 melanoma
  GI50: 1030 nM
  TGI: 2260 nM
UACC-257 melanoma
  GI50: 1460 nM
  TGI: 2800 nM
ACHN renal
  GI50: 672 nM
  TGI: 11400 nM
COLO 205 colon
  GI50: 1480 nM
  TGI: 3920 nM
HOP-62 NSCLC
  GI50: 1200 nM
  TGI: 2960 nM
SK-OV-3 ovarian
  GI50: 758 nM
  TGI: 2880 nM
BT-549 breast
  GI50: 1720 nM
  TGI: 3210 nM
UACC-62 melanoma
  GI50: 798 nM
  TGI: 2060 nM
OVCAR-8 ovarian
  GI50: 1680 nM
  TGI: 4270 nM
A498 renal
  GI50: 710 nM
  TGI: 4220 nM
A549 NSCLC
  GI50: 1250 nM
  TGI: 4060 nM
CAKI-1 renal
  GI50: 452 nM
  TGI: 2340 nM
MCF7 breast
  GI50: 563 nM
  TGI: 1980 nM
NCI-H522 lung
  GI50: 1090 nM
  TGI: 2400 nM
SN12C renal
  GI50: 587 nM
  TGI: 1890 nM
OVCAR-4 ovarian
  GI50: 2000 nM
  TGI: 5100 nM
MDA-MB-468 breast
  GI50: 1140 nM
  TGI: 2370 nM
SF-295 CNS
  GI50: 2050 nM
  TGI: 4490 nM
DU-145 prostate
  GI50: 1560 nM
  TGI: 10500 nM
HCT-116 colon
  GI50: 852 nM
  TGI: 10400 nM
SF-539 CNS
  GI50: 1610 nM
  TGI: 3000 nM
UO-31 renal
  GI50: 1640 nM
  TGI: 3850 nM
CCRF-CEM leukemia
  GI50: 1530 nM
  TGI: 2920 nM
HOP-92 NSCLC
  GI50: 1570 nM
  TGI: 5460 nM
HCT-15 colon
  GI50: 950 nM
  TGI: 3230 nM
HS 578T breast
  GI50: 1540 nM
  TGI: 2970 nM
MDA-MB-231 breast
  GI50: 1840 nM
  TGI: 9870 nM
MDA-MB-435 melanoma
  GI50: 1470 nM
  TGI: 4090 nM
MOLT-4 leukemia
  GI50: 1020 nM
  TGI: 2190 nM
NCI-H226 lung
  GI50: 1210 nM
  TGI: 4180 nM
SNB-19 CNS
  GI50: 2580 nM
  TGI: 10600 nM
NCI-H322M lung
  GI50: 1320 nM
  TGI: 3510 nM
U251 glioblastoma
  GI50: 1920 nM
  TGI: 4790 nM
SW-620 colon
  GI50: 2440 nM
  TGI: 8150 nM
SNB-75 CNS
  GI50: 1060 nM
  TGI: 2270 nM
NCI/ADR-RES ovarian
  GI50: 1970 nM
  TGI: 4000 nM
M14 melanoma
  GI50: 838 nM
  TGI: 3050 nM
T-47D breast
  GI50: 613 nM
  TGI: 2430 nM

## CN(C)CC(C)(CN(C)C)C(=O)/C=C/c1c(Cl)cccc1Cl
HT29 colon
  GI50: 1870 nM
  TGI: 3410 nM
IGROV1 ovarian
  GI50: 1870 nM
  TGI: 3360 nM
RXF 393 renal
  GI50: 2130 nM
  TGI: 3590 nM
786-0 renal
  GI50: 1790 nM
  TGI: 3220 nM
HL-60(TB) leukemia
  GI50: 1010 nM
  TGI: 2180 nM
SK-MEL-28 melanoma
  GI50: 10000 nM
  TGI: 21700 nM
TK-10 renal
  GI50: 1610 nM
  TGI: 3120 nM
HCC-2998 colon
  GI50: 2240 nM
  TGI: 6900 nM
K-562 leukemia
  GI50: 4980 nM
  TGI: 15900 nM
LOX IMVI melanoma
  GI50: 1670 nM
  TGI: 3150 nM
NCI-H23 lung
  GI50: 2470 nM
  TGI: 5040 nM
NCI-H460 NSCLC
  GI50: 1970 nM
  TGI: 3590 nM
SF-268 CNS
  GI50: 5610 nM
  TGI: 15800 nM
PC-3 prostate
  GI50: 2520 nM
  TGI: 5200 nM
RPMI-8226 leukemia
  GI50: 200 nM
  TGI: 346 nM
OVCAR-3 ovarian
  GI50: 1910 nM
  TGI: 3370 nM
MALME-3M melanoma
  GI50: 2160 nM
  TGI: 3610 nM
EKVX NSCLC
  GI50: 4280 nM
  TGI: 14100 nM
KM12 colon
  GI50: 1220 nM
  TGI: 2920 nM
SK-MEL-5 melanoma
  GI50: 1390 nM
  TGI: 2980 nM
UACC-257 melanoma
  GI50: 1950 nM
  TGI: 3810 nM
ACHN renal
  GI50: 1880 nM
  TGI: 3310 nM
COLO 205 colon
  GI50: 2170 nM
  TGI: 3660 nM
HOP-62 NSCLC
  GI50: 2320 nM
  TGI: 3960 nM
SK-OV-3 ovarian
  GI50: 4380 nM
  TGI: 15400 nM
BT-549 breast
  GI50: 2520 nM
  TGI: 5730 nM
UACC-62 melanoma
  GI50: 2160 nM
  TGI: 4200 nM
OVCAR-8 ovarian
  GI50: 1950 nM
  TGI: 3410 nM
A498 renal
  GI50: 2290 nM
  TGI: 4600 nM
A549 NSCLC
  GI50: 3720 nM
  TGI: 13200 nM
CAKI-1 renal
  GI50: 1810 nM
  TGI: 3230 nM
MCF7 breast
  GI50: 512 nM
  TGI: 1760 nM
NCI-H522 lung
  GI50: 1710 nM
  TGI: 3090 nM
SN12C renal
  GI50: 1880 nM
  TGI: 3290 nM
OVCAR-4 ovarian
  GI50: 1810 nM
  TGI: 3210 nM
MDA-MB-468 breast
  GI50: 2100 nM
  TGI: 3590 nM
SF-295 CNS
  GI50: 11400 nM
  TGI: 23600 nM
DU-145 prostate
  GI50: 5180 nM
  TGI: 16000 nM
HCT-116 colon
  GI50: 2030 nM
  TGI: 3530 nM
SF-539 CNS
  GI50: 1900 nM
  TGI: 3330 nM
CCRF-CEM leukemia
  GI50: 1580 nM
  TGI: 2960 nM
HOP-92 NSCLC
  GI50: 2170 nM
  TGI: 3650 nM
SK-MEL-2 melanoma
  GI50: 2070 nM
  TGI: 3540 nM
HCT-15 colon
  GI50: 1860 nM
  TGI: 3330 nM
HS 578T breast
  GI50: 2170 nM
  TGI: 4240 nM
MDA-MB-435 melanoma
  GI50: 3900 nM
  TGI: 11600 nM
MOLT-4 leukemia
  GI50: 1540 nM
  TGI: 2890 nM
NCI-H226 lung
  GI50: 1760 nM
  TGI: 3340 nM
SNB-19 CNS
  GI50: 4180 nM
  TGI: 12400 nM
NCI-H322M lung
  GI50: 3860 nM
  TGI: 12300 nM
U251 glioblastoma
  GI50: 2120 nM
  TGI: 3740 nM
SW-620 colon
  GI50: 2010 nM
  TGI: 3480 nM
SNB-75 CNS
  GI50: 5160 nM
  TGI: 11300 nM
NCI/ADR-RES ovarian
  GI50: 2140 nM
  TGI: 3820 nM
M14 melanoma
  GI50: 2090 nM
  TGI: 4000 nM
